Experimental data reported in ChEMBL document CHEMBL3044801, “Synthesis and antiprotozoal activity of 1,2,3,4-tetrahydro-2-thioxopyrimidine analogs of combretastatin A-4” (Med Chem Res, 2011).
Activity calls are given as the source filed them. The rule behind the calls is not given here.

Assays:
Giardia intestinalis [1] = assay: Antiprotozoan activity against Giardia intestinalis after 72 hr by MTT assay; format: functional, organism-based; details: Giardia duodenalis
Plasmodium falciparum = assay: Antiprotozoan activity against Plasmodium falciparum assessed as inhibition of [3H]hypoxanthine incorporation incubated for 24 hr prior to [3H]hypoxanthine addition measured after 18 hr by liquid scintillation counting; format: functional, organism-based
Trypanosoma lewisi = assay: Antiprotozoan activity against Trypanosoma lewisi after 72 hr by MTT assay; format: functional, organism-based
Leishmania tarentolae = assay: Antiprotozoan activity against Leishmania tarentolae after 72 hr by MTT assay; format: functional, organism-based
B16 = assay: Cytotoxicity against Mus musculus (mouse) B16 cells after 72 hr by MTT assay; format: cell-based; details: B16, 72 h
L1210 = assay: Cytotoxicity against Mus musculus (mouse) L1210 cells after 72 hr by MTT assay; format: cell-based; details: L1210, 72 h
[2] = Selectivity index, ratio of IC50 for mouse B16 cells to IC50 for Leishmania tarentolae; format: toxicity, cell-based; details: B16 cells versus Leishmania tarentolae, read-out: Ratio IC50
[3] = Selectivity index, ratio of IC50 for mouse L1210 cells to IC50 for Giardia lamblia
[4] = Selectivity index, ratio of IC50 for mouse L1210 cells to IC50 for Leishmania tarentolae; format: toxicity, cell-based; details: L1210 cells versus Leishmania tarentolae, read-out: Ratio IC50
[5] = Selectivity index, ratio of IC50 for mouse B16 cells to IC50 for Trypanosoma lewisi; format: toxicity, cell-based; details: B16 cells versus Trypanosoma lewisi, read-out: Ratio IC50
[6] = Selectivity index, ratio of IC50 for mouse B16 cells to IC50 for Giardia lamblia
[7] = Selectivity index, ratio of IC50 for mouse L1210 cells to IC50 for Trypanosoma lewisi; format: toxicity, cell-based; details: L1210 cells versus Trypanosoma lewisi, read-out: Ratio IC50
Giardia intestinalis [8] = assay: Antiprotozoan activity against Giardia intestinalis assessed as decrease in viability at 12.1 to 21.5 uM after 72 hr by microscopic analysis; format: functional, organism-based; details: Giardia duodenalis

SMILES | IC50 (Giardia intestinalis [1]) [µM] | IC50 (Plasmodium falciparum) [µM] | IC50 (Trypanosoma lewisi) [µM] | IC50 (Leishmania tarentolae) [µM] | IC50 (B16) [µM] | IC50 (L1210) [µM] | selectivity ratio [2] | Ratio IC50 [3] | selectivity ratio [4] | selectivity ratio [5] | Ratio IC50 [6] | selectivity ratio [7] | Activity (Giardia intestinalis [8])
COc1cc(OC)c(C2C=C(c3cc(OC)ccc3OC)NC(=S)N2)c(OC)c1 (stereo not drawn) | 33.8 | 17.3 | 25 | 10.4 | – | – | – | – | – | – | – | – | –
COc1ccc(OC)c(C2=CC(c3cc(OC)ccc3OC)NC(=S)N2)c1 (stereo not drawn) | > 100 | 27.9 | 27.3 | 18 | > 100 | > 100 | – | – | – | – | – | – | –
COc1cc(C2=CC(c3ccc(Cl)cc3)NC(=S)N2)cc(OC)c1OC (stereo not drawn) | 46.7 | – | 27 | 10.2 | – | – | – | – | – | – | – | – | –
COc1ccc(OC)c(C2C=C(c3cc(OC)c(OC)c(OC)c3)NC(=S)N2)c1 (stereo not drawn) | 23.5 | – | 48.4 | 30.3 | – | – | – | – | – | – | – | – | –
COc1ccc(C2=CC(c3c(OC)cc(OC)cc3OC)NC(=S)N2)cc1 (stereo not drawn) | > 100 | 14.6 | 13.4 | 25.1 | 25 | 85 | – | – | – | – | – | – | –
COc1cc(C2=CC(c3cc(OC)c(OC)c(OC)c3)NC(=S)N2)cc(OC)c1OC (stereo not drawn) | 24.8 | – | 29.3 | 46.6 | – | – | – | – | – | – | – | – | –
COc1ccc(OC)c(C2=CC(c3cc(OC)c(OC)c(OC)c3)NC(=S)N2)c1 (stereo not drawn) | > 100 | 13.3 | 15.7 | 16.8 | 0.5 | 6 | – | – | – | – | – | – | –
COc1ccc(C2=CC(c3ccc(OC)c(OC)c3)NC(S)=N2)cc1 (stereo not drawn) | > 100 | 31 | 25.8 | 27.2 | > 100 | > 100 | – | – | – | – | – | – | –
COc1cc(OC)c(C2C=C(c3cc(OC)c(OC)c(OC)c3)NC(=S)N2)c(OC)c1 (stereo not drawn) | 20.3 | – | 29.6 | 46.6 | – | – | – | – | – | – | – | – | –
COc1ccc(C2=CC(c3ccc(OC)cc3)NC(=S)N2)cc1 (stereo not drawn) | – | 25 | 15.2 | 17.8 | > 100 | > 100 | – | – | – | – | – | – | –
COc1cc(C2=CC(c3ccc([N+](=O)[O-])cc3)NC(=S)N2)cc(OC)c1OC (stereo not drawn) | 21 | – | 50 | 13.7 | – | – | 8 | 4 | 8 | 2 | 4 | 2 | –
COc1ccc(C2C=C(c3cc(OC)c(OC)c(OC)c3)NC(=S)N2)cc1OC (stereo not drawn) | 22.7 | – | 52.1 | 36.4 | – | – | – | – | – | – | – | – | –
COc1ccc(OC)c(C2=CC(c3ccc(OC)c([N+](=O)[O-])c3)NC(=S)N2)c1 (stereo not drawn) | 57.8 | – | 33.3 | 21.1 | – | – | – | – | – | – | – | – | –
COc1ccc(C2C=C(c3cc(OC)c(OC)c(OC)c3)NC(=S)N2)cc1 (stereo not drawn) | 22.3 | 14.5 | 17.9 | 12.5 | 36 | 41 | – | – | – | – | – | – | –
COc1ccc(C2C=C(c3cc(OC)ccc3OC)NC(=S)N2)cc1 (stereo not drawn) | > 100 | 69.4 | 16.5 | 11.4 | 80 | 87 | – | – | – | – | – | – | –
COc1ccc(C2C=C(c3cc(OC)c(OC)c(OC)c3)NC(=S)N2)cc1[N+](=O)[O-] (stereo not drawn) | 24.3 | – | 39.5 | 12.5 | – | – | 8 | 4 | 8 | 2 | 4 | 2 | –
COc1cccc(C2C=C(c3cc(OC)c(OC)c(OC)c3)NC(=S)N2)c1 (stereo not drawn) | 40.4 | – | 24.3 | 19.4 | – | – | – | – | – | – | – | – | –
COc1ccc(C2C=C(c3cc(OC)c(OC)c(OC)c3)NC(=S)N2)cc1O (stereo not drawn) | 21.5 | – | 49.2 | 12.1 | – | – | – | – | – | – | – | – | Active
